Data as given in ChEMBL document CHEMBL5500403, “Discovery of a Double-Stapled Short Peptide as a Long-Acting HIV-1 Inactivator with Potential for Oral Bioavailability” (J Med Chem, 2024).
Bridge positions count the residues as written; N and C are the ends. Square brackets hold non-standard residues; d marks the D form. Peptide text beside a SMILES is read from it. S5 = C=CCCC[C@](C)(N)C(=O)O

Assay: Toxicity in Sprague-Dawley rat assessed as necrosis in kidney at 50 mg/kg,iv administration measured after 14 days by hematoxylin and eosin staining based assay
Type: organism-based
Settings: in vivo, 336 h, time 14 day

SMILES: CC(=O)NCC(=O)N[C@@]1(C)CCC/C=C\CCC[C@@](C)(C(=O)N[C@@H](Cc2ccc(O)cc2)C(=O)N[C@@H](CC(C)C)C(=O)N[C@@]2(C)CCC/C=C\CCC[C@@](C)(C(=O)N[C@@H](Cc3ccc(O)cc3)C(=O)N[C@@H](Cc3c[nH]c4ccccc34)C(N)=O)NC(=O)[C@H](CC(C)C)NC(=O)[C@H](CC(C)C)NC(=O)[C@H](CC(N)=O)NC2=O)NC(=O)[C@H](CC(C)C)NC(=O)[C@H](C)NC(=O)[C@H](CCC(=O)O)NC1=O (Ac-G[S5]EAL[S5]YL[S5]NLL[S5]YW-NH2; staple (Z) 2-6, 9-13)
- Activity: Non-Toxic
